Results on 7 compounds are retold here after patent US7396837B2, “Antitumoral analogs of lamellarins” (Pharma Mar, S.A.U., priority 2002, dated 2008).

Data set [1] deals with T1, human topoisomerase I (Homo sapiens, UniProt P11387).
T1 sequence (P11387 1-765): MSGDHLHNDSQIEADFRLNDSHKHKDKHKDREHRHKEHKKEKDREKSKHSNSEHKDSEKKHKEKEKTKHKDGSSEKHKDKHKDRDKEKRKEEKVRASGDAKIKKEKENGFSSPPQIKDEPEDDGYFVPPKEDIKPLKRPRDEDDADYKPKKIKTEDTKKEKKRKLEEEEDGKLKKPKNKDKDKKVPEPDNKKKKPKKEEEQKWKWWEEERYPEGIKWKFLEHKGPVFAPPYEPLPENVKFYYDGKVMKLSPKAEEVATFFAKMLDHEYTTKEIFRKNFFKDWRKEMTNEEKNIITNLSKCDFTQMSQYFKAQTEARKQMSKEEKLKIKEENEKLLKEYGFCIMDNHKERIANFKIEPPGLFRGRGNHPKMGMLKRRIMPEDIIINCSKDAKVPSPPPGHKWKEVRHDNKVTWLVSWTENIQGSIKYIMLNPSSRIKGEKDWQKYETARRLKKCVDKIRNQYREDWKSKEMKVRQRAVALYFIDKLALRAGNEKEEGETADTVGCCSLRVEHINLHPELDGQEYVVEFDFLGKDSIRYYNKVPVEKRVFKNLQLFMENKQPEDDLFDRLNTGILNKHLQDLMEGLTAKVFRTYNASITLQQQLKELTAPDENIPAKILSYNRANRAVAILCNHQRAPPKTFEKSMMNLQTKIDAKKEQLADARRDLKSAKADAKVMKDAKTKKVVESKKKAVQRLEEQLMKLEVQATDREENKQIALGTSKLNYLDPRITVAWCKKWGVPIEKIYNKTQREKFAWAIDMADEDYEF
Nature of the data set: Topoisomerase I cleavage of radiolabeled 117-bp DNA fragment. The class given is biochemical. The settings on record: 117-bp DNA restriction fragment 3' end-labeled, sequencing-type polyacrylamide gels. The text has this: (§1) Two assays, based on DNA relaxation and DNA cleavage (Bailly, C. DNA relaxation and cleavage assays to study topoisomerase I inhibitors. Methods Enzymol. 2001, 340, 610-623) were used evaluate the effects of the lamellarin analogs on the catalytic activity of human topoisomerase I.
A second assay, based on the cleavage of a radiolabeled DNA substrate by topoisomerase I, was used to confirm that the cationic lamellarin derivatives do effectively function as topoisomerase I poisons. A 117-bp DNA restriction fragment uniquely end-labeled at the 3′ end was subjected to cleavage by topoisomerase I in the presence of the different compounds and the resulting DNA cleavage products were resolved on sequencing-type polyacrylamide gels. The advantage of this assay is to detect the cleavage sites and to locate their positions with nucleotide resolution, providing thus information on the site selectivity of cleavage.

The target of data set [2] is T1, human topoisomerase I. Kind of data set: Topoisomerase I DNA relaxation assay (supercoiled plasmid DNA). The class given is biochemical. The conditions noted are these: for stimulation of DNA cleavage by topoisomerase I / inhibition of topoisomerase I (nicked DNA band) in DNA relaxation assay: supercoiled plasmid DNA, each compound tested at 1 μM, agarose gel with ethidium bromide. As to the method:
as §1
In the first assay, a supercoiled plasmid DNA was relaxed with topoisomerase I in the absence or presence of the test compounds, each tested at 1 μM. DNA relaxation products were then resolved by gel electrophoresis on agarose gels containing ethidium bromide to stain the DNA.

The test system of a further data set is lung cancer cell lines. The settings on record: acting as a Type IV microtubule poison; cited from earlier work.
Another data set deals with fertilised sea urchin. The conditions noted are these: fertilised sea urchin assay; cited from earlier work.
Another data set deals with P388. The conditions noted are these: P388 cell line in culture; cited from earlier work.
Another data set deals with A549. The settings on record: A549 cell line in culture; cited from earlier work.

For `CC[C@@]1(O)C(=O)OCc2c1cc1n(c2=O)Cc2cc3ccccc3nc2-1` [camptothecin, reference compound], the “topoisomerase I-mediated DNA cleavage sites / cleavage profile” value on human topoisomerase I [1] was “T^↓G only”; on human topoisomerase I [1] (listed as CPT) it was “three sites at nucleotide positions 26, 48 and 81”. For the same compound, the “stimulation of DNA cleavage by topoisomerase I / inhibition of topoisomerase I (nicked DNA band) in DNA relaxation assay” value on human topoisomerase I [2] was “strongly promotes DNA cleavage by topoisomerase I”.
For `COc1cc(-c2c3c4cc(OC)c(OC(=O)[C@@H](N)Cc5ccccc5)cc4oc(=O)c3n3ccc4cc(OC(=O)[C@@H](N)Cc5ccccc5)c(OC)cc4c23)ccc1OC(=O)[C@@H](N)Cc1ccccc1` [Compound 25], on human topoisomerase I [1], the “topoisomerase I-mediated DNA cleavage sites / cleavage profile” value is “Cleavage profiles identical to that of 3”. Further, the “potency at inhibiting topoisomerase I relative to the other amino acid derivatives” value on human topoisomerase I [2] (DNA relaxation assay) is on record as “significantly less potent than the other amino acid derivatives”. Moreover, the “stimulation of DNA cleavage by topoisomerase I / inhibition of topoisomerase I (nicked DNA band) in DNA relaxation assay” value at human topoisomerase I [2] is “marked inhibition of topoisomerase I”.
Turning to `COc1ccc(-c2c3c4cc(OC)c(O)cc4oc(=O)c3n3ccc4cc(O)c(OC)cc4c23)cc1O` [Lamellarin N, lamellarin N], the “activity in lung cancer cell lines” value in the data set on lung cancer cell lines is “exhibit activity in lung cancer cell lines”.
In the case of `COc1cc(-c2c3n(c4c(=O)oc5cc(O)c(OC)cc5c24)CCc2c-3cc(OC)c(OC)c2OC)ccc1O` [Lamellarin C, lamellarin C], the “inhibition of cell division” value in the data set with fertilised sea urchin is “inhibition of cell division”.
For `COc1cc(-c2c3n(c4c(=O)oc5cc(O)c(OC)cc5c24)CCc2c-3cc(OC)c(OC)c2O)ccc1O` [Lamellarin K, lamellarin K], the cytotoxicity entry in the data set with P388 and in the data set on A549 was “comparable cytoxicity” in each case.
As for `COc1cc2c(cc1O)oc(=O)c1c2c(-c2ccc(OC)c(OC)c2)c2n1CCc1c-2cc(OC)c(OC)c1OC` [Lamellarin I, lamellarin I], the cytotoxicity entry in the data set with P388 and with A549 was “comparable cytoxicity” each time.
As for `COc1ccc(-c2c3n(c4c(=O)oc5cc(O)c(OC)cc5c24)CCc2cc(O)c(OC)cc2-3)cc1O` [Lamellarin L, lamellarin L], the cytotoxicity result in the data set with P388 and in the data set with A549 was “comparable cytoxicity” throughout.
